Experimental data published in publication PMC11714206, “Massively Parallel Screening of Toll/Interleukin‐1 Receptor (TIR)‐Derived Peptides Reveals Multiple Toll‐Like Receptors (TLRs)‐Targeting Immunomodulatory Peptides” (Advanced Science, 2024).
Several values for one entry are separate records, joined by “and”; a condition that tells them apart may be missing. Equal values may be shown once. Values belong to the sequence of their own block, whether it stands above or below them.

Target: T1, MAL^TIR (Homo sapiens, UniProt P58753)
T1 construct: MAL (residues 79–221); 6xHis; made in house; host or cells: E. coli BL21 (DE3)
Experiment: T‐Surf phage library (P8 and P3) selection against MAL^TIR, four rounds, NGS read counts
Format: binding
Conditions: for P8_MAL Rank (after) / P8_MAL Rank (before): P8 library; for P3_MAL Rank (after) / P3_MAL Rank (before): P3 library; for Population: 4th round of selection against MAL TIR, share of NGS reads
In short: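 Read counts come from NGS of phage pools enriched over four selection rounds on the plate‐coated TIR domain (5 µg mL^−1). Each round: 1 h phage binding at room temperature after 0.2% BSA blocking, Tween washes, acid elution, amplification in E. coli TG1 with M13KO7 helper.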

[1] = P8_MAL: rank by count after grouping
[2] = P8_MAL: rank by count before grouping
[3] = selection against MAL, rank after grouping
[4] = selection against MAL, rank before grouping
[5] = selection against MAL TIR, rank by count after grouping
[6] = selection against MAL TIR, rank by count before grouping
[7] = P8_MAL pool: P8 T-Surf phage library
[8] = selection against MAL, rank by count after grouping
[9] = selection against MAL, rank by count before grouping
[10] = P3_MAL: rank by count after grouping
[11] = P3_MAL: rank by count before grouping
[12] = P3_MAL pool: P3 T-Surf phage library
[13] = 4R selection against MAL, rank after grouping
[14] = 4R selection against MAL, rank before grouping

T1 sequence (P58753 79-221): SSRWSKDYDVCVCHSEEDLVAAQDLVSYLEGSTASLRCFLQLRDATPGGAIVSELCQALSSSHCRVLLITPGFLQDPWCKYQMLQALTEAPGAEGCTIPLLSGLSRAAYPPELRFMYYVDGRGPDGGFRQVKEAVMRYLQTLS

Sequence: TFLCHLYSTLVQARIH
Rank (after) [1]: 402
Rank (before) [2]: 2546

Sequence: RNFVAYLFKALANTGI
P8_MAL Rank (after) [3]: 526
P8_MAL Rank (before) [4]: 2219

Sequence: GCYERLVSLILRDTKV
Rank (after) [1]: 121
Rank (before) [2]: 1571

Sequence: SSFRDGLWRLLELRKK
P3_MAL Rank (after) [5]: 269
P3_MAL Rank (before) [6]: 3129

Sequence: ESIIYQLHRSSERVAN
P3_MAL Rank (after) [3]: 501
P3_MAL Rank (before) [4]: 2075

Sequence: SSLREGLLRLQELSKK
P3_MAL Rank (after) [8]: 713
P3_MAL Rank (before) [9]: 3205

Sequence: WFMMKFRTVLYHVNYV
Rank (after) [1]: 398
Rank (before) [2]: 1377

Sequence: RLLNWKEALHQFHSWV
Population [12]: 0.00338%

Sequence: NGHESELIKEIVVTIV
P3_MAL Rank (after) [13]: 647
P3_MAL Rank (before) [14]: 3257

Sequence: WFYERLVRLILRDTKV
Population [7]: 0.00309%

Sequence: AFLYTLLINLTHPTNF
Population [7]: 0.00432%

Sequence: AFLCTHLKNLIHKTTI
Rank (after) [1]: 415
Rank (before) [2]: 1755

Sequence: NQWRNALTAAANLSGR
Population [12]: 0.00564%

Sequence: SPRKNLVSNLIEEFTR
P3_MAL Rank (after) [5]: 252
P3_MAL Rank (before) [6]: 3108

Sequence: NQWRNALTAAANQSGL
Rank (after) [10]: 161
Rank (before) [11]: 3383

Sequence: IFCISCCLAVRKPSI
P8_MAL Rank (after) [5]: 241
P8_MAL Rank (before) [6]: 2434

Sequence: YFLLFVLFGRSAIGSM
P8_MAL Rank (after) [8]: 713
P8_MAL Rank (before) [9]: 1459

Sequence: YAFTGHLHRYLVRRSA
P3_MAL Rank (after) [3]: 561
P3_MAL Rank (before) [4]: 1392

Sequence: TFHSHLYNALVQAGIH
P8_MAL Rank (after) [8]: 678
P8_MAL Rank (before) [9]: 2634

Sequence: AFFWAQQKSVLGDPTM
P8_MAL Rank (after) [8]: 722
P8_MAL Rank (before) [9]: 1646

Sequence: LKWGDPRQASKLGYTM
P3_MAL Rank (after) [8]: 761
P3_MAL Rank (before) [9]: 2242

Sequence: TFLGHLYNALVQAGIH
Population [7]: 0.00463% and 0.00432% and 0.00402%

Sequence: RNFAGQLAGLTLQNGDEGK
P3_MAL Rank (after) [13]: 607
P3_MAL Rank (before) [14]: 2604

Sequence: AFQYTFLFNLTHPTNF
Rank (after) [1]: 125
Rank (before) [2]: 1920

Sequence: RAFVAHPQELIQKKQQ
P3_MAL Rank (after) [8]: 739
P3_MAL Rank (before) [9]: 2454

Sequence: WFYECLVSLILRVTKV
P8_MAL Rank (after) [5]: 217
P8_MAL Rank (before) [6]: 1145

Sequence: WFYERLVRLILSDTKV
P8_MAL Rank (after) [3]: 549
P8_MAL Rank (before) [4]: 1175

Sequence: RGLLSHLRHHLLGKDH
Rank (after) [10]: 450
Rank (before) [11]: 2429

Sequence: RKFEAYLFQALANKGI
P8_MAL Rank (after) [5]: 208
P8_MAL Rank (before) [6]: 2257

Sequence: ALPYTFLINLTHPTTF
P8_MAL Rank (after) [3]: 503
P8_MAL Rank (before) [4]: 1961

Sequence: AFLYTFLINLTIRPIX
Population [7]: 0.00371%

Sequence: AFLYTFLINLTHPNNF
Population [7]: 0.00463%

More lines, now with the values ahead:

P8_MAL Rank (after) [5]: 272
P8_MAL Rank (before) [6]: 1581
Sequence: AFFLAQLKSEPTNPTM

Rank (after) [1]: 446
Rank (before) [2]: 1237
Sequence: WFYERLVRLFLRDTKV

Population [7]: 0.0034%
Sequence: WFYERLVSLILRDTKX

P8_MAL Rank (after) [8]: 714
P8_MAL Rank (before) [9]: 2184
Sequence: RNFWRIFFRRWPIKG

Rank (after) [1]: 128
Rank (before) [2]: 2061
Sequence: LFFWGSLKQLLRNDGR

P3_MAL Rank (after) [3]: 497
P3_MAL Rank (before) [4]: 2386
Sequence: RGFLSHLRQHLKAKDH

Rank (after) [10]: 140
Rank (before) [11]: 406
Sequence: VRQNFISHLYDALHRNRI

Rank (after) [1]: 165
Rank (before) [2]: 2449
Sequence: SEFILQIILWMNPKIV

P3_MAL Rank (after) [3]: 487
P3_MAL Rank (before) [4]: 2617
Sequence: RFFQNKMRYHLQQLQH

P3_MAL Rank (after) [13]: 597
P3_MAL Rank (before) [14]: 2045
Sequence: ESILTKLRRSSQSIAN

Rank (after) [10]: 139
Rank (before) [11]: 2548
Sequence: RLRKWKEALQQFHSWV

P3_MAL Rank (after) [8]: 716
P3_MAL Rank (before) [9]: 1671
Sequence: VEPTQVRKQSGAVEM

P3_MAL Rank (after) [5]: 223
P3_MAL Rank (before) [6]: 1476
Sequence: YAFTSHLSRYLVQRGV

P3_MAL Rank (after) [13]: 667
P3_MAL Rank (before) [14]: 2738
Sequence: PNLRTKELIYLMRTKT

P3_MAL Rank (after) [5]: 255
P3_MAL Rank (before) [6]: 3406
Sequence: NQWRNELNAAANLSGW

P3_MAL Rank (after) [8]: 679
P3_MAL Rank (before) [9]: 3278
Sequence: NDVEGCRDALTKVASL

Rank (after) [1]: 190
Rank (before) [2]: 1854
Sequence: AFLYTFLINLTHPPI

P3_MAL Rank (after) [13]: 593
P3_MAL Rank (before) [14]: 3169
Sequence: SSFREGLWRLMELSNK

Rank (after) [10]: 424
Rank (before) [11]: 1898
Sequence: DWFLSKLNQHLLKREK

Rank (after) [10]: 190
Rank (before) [11]: 2747
Sequence: PNLRTKVLNYLILTKT

Rank (after) [10]: 477
Rank (before) [11]: 2709
Sequence: PNLRTKVLNSLMSTKT
